One assay has as its system PC3 (prostate). As to the kind of experiment: In vitro cytotoxic activity assay (MTT), PC3. It is filed as cell-based. The settings on record: Homo sapiens, Prostate cell; PC3 (prostate) cells, exposed for 96 hours; read-out: IC50, concentration eliciting 50% inhibition of cell proliferation. Here is the method: (§1) Compounds 1-15 were screened for their in vitro cytotoxic activity utilizing a 3-(4,5-dimethyl-thiazol-2-yl)-2,5-diphenyltetrazolium bromide (MTT) assay against selected cancer human cell lines consisting of PC3 (prostate), HCT116 (colon), A375 (melanoma), H1299 (lung), MIAPaCa-2 (pancreas), HL60 (leukemia), MCF7 (breast), MDA-MB-231 (breast) (T. Mosmann, J. Immunol. Meth., 1983, 65, 55-63). The cells were cultured at 37° C. in RMPI1640 medium supplemented with 10% fetal bovine serum, 50 IU/mL penicillin, and 50 μg/mL streptomycin in a 5% CO2 incubator. All cells were sub-cultured 3 times/week by trypsinisation. Viable cells were seeded and allowed to adhere for 12 h before a test drug was added in 96-well plates at an initial density of 1.0×10^5 cells/mL. Tumour cell lines were separately exposed to various concentrations of the tested compounds followed by incubation at a temperature of 37° C. during 96 h inside a medium of fresh RMPI 1640. Cells were subsequently incubated at 37° C. using MTT at 0.5 mg/mL during 4 h. After removal of supernatant, formazan crystals were dissolved in isopropanol and the optical density was measured at 570 nm. CX-4945 was used as a positive control.

The test system of the next assay is HL60 (leukemia). Briefly: In vitro cytotoxic activity assay (MTT), HL60. Type of assay: cell-based. The settings on record: Homo sapiens, HL-60; HL60 (leukemia) cells, exposed for 96 hours; read-out: IC50, concentration eliciting 50% inhibition of cell proliferation. The method, then: as §1
The subject of a further assay is H1299 (lung). As to the kind of experiment: In vitro cytotoxic activity assay (MTT), H1299. The settings on record: Homo sapiens, NCI-H1299; H1299 (lung) cells, exposed for 96 hours; read-out: IC50, concentration eliciting 50% inhibition of cell proliferation. It is filed as cell-based. Here is the method:
as §1

In another assay the test system is MIAPaCa-2 (pancreas). As to the kind of experiment: In vitro cytotoxic activity assay (MTT), MIAPaCa-2. It is filed as cell-based. The settings on record: Homo sapiens, MIA PaCa-2; MIAPaCa-2 (pancreas) cells, exposed for 96 hours; read-out: IC50, concentration eliciting 50% inhibition of cell proliferation. The method, then:
as §1

The next assay deals with T1, recombinant human CK2 (Homo sapiens, UniProt P68400).
T1 construct: purchased Millipore
T1 sequence (P68400 whole entry): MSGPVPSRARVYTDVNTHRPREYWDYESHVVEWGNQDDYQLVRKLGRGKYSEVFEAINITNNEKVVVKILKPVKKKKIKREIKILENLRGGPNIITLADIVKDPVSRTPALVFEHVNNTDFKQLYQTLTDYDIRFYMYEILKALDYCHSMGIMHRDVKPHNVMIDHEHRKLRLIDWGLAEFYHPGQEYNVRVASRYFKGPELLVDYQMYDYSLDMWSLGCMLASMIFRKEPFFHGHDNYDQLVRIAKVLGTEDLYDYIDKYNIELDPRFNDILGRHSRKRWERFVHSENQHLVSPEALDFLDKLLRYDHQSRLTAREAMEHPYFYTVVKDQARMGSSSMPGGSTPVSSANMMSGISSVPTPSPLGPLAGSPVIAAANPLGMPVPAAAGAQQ
T1 sequence (P67870 whole entry partner): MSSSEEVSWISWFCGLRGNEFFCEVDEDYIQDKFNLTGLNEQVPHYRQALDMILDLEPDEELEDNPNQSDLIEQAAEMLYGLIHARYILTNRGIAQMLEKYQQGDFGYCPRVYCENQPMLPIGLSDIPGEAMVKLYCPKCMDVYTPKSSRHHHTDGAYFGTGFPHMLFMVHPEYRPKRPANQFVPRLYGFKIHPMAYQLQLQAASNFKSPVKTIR
As to the kind of experiment: CK2 Kinase Assay (33P-ATP, substrate peptide RRRDDDSDDD). It is filed as biochemical. The settings on record: final ATP concentration 15 μM, 10 min at 30° C.; read-out: protein kinase CK2 IC50. The method, then:
CK2 Kinase Assay was conducted using the protocol as described in Pierre F. et al; J. Med. Chem. 2011, 54, 635-654. The tested compounds in aqueous solution were added at a volume of 10 μL to a reaction mixture comprising 10 μL of assay dilution buffer (ADB; 20 mM MOPS, pH 7.2, 25 mM β-glycerol phosphate, 5 mM EGTA, 1 mM sodium orthovanadate, and 1 mM dithiothreitol), 10 μL of substrate peptide (RRRDDDSDDD, dissolved in ADB at a concentration of 1 mM), 10 μL of recombinant human CK2 (RROP-holoenzyme, 25 ng dissolved in ADB; Millipore). Reactions were initiated by the addition of 10 μL of ATP solution (90% 75 mMMgCl2, 75 μM ATP (final ATP concentration: 15 μM) dissolved in ADB; 10% [γ-33P] ATP (stock 1 mCi/100 L; 3000 Ci/mmol (Perkin-Elmer) and maintained for 10 min at 30° C. The reactions were quenched with 100 μL of 0.75% phosphoric acid and then transferred to and filtered through a phosphor cellulose filter plate (Millipore). After washing each well five times with 0.75% phosphoric acid, the plate was dried under vacuum for 5 min and, following the addition of 15 μL of scintillation fluid to each well, the residual radioactivity was measured using a Wallac luminescence counter. The IC50 values were derived from eight concentrations of test inhibitors.

Another assay has as its system A375 (melanoma). As to the kind of experiment: In vitro cytotoxic activity assay (MTT), A375. It is filed as cell-based. The settings on record: Homo sapiens, A-375; A375 (melanoma) cells, exposed for 96 hours; read-out: IC50, concentration eliciting 50% inhibition of cell proliferation. Here is the method:
as §1

A further assay concerns MCF7 (breast). Briefly: In vitro cytotoxic activity assay (MTT), MCF7. It is filed as cell-based. The settings on record: Homo sapiens; MCF7 (breast) cells, exposed for 96 hours; read-out: IC50, concentration eliciting 50% inhibition of cell proliferation. Here is the method: as §1
A further assay relates to MDA-MB-231 (breast). As to the kind of experiment: In vitro cytotoxic activity assay (MTT), MDA-MB-231. It is filed as cell-based. The settings on record: Homo sapiens; MDA-MB-231 (breast) cells, exposed for 96 hours; read-out: IC50, concentration eliciting 50% inhibition of cell proliferation. The method, then:
as §1

A further assay concerns HCT116 (colon). Briefly: In vitro cytotoxic activity assay (MTT), HCT116. It is filed as cell-based. The settings on record: Homo sapiens, HCT-116; HCT116 (colon) cells, exposed for 96 hours; read-out: IC50, concentration eliciting 50% inhibition of cell proliferation. The method, then: as §1

On to `Clc1cccc(-n2c3ccncc3c3nc4cnccn4c32)c1` [Compound 1, 5-(3-chlorophenyl)-5H-pyrido[3″,4″:4′,5′]pyrrolo[3′,2′:4,5]imidazo[1,2-a]pyrazine], for which the IC50 in the assay with PC3 (prostate) worked out at 1.5 µM; in the assay with HL60 (leukemia), 3 µM; in the assay with H1299 (lung) it was 2.1 µM; in the assay on MIAPaCa-2 (pancreas), 1.2 µM; at recombinant human CK2 it was 0.047 µM; in the assay with A375 (melanoma), 4.4 µM. Besides, the IC50 in the assay on MCF7 (breast) came out at 5.6 µM; in the assay on MDA-MB-231 (breast) it was 3.9 µM; in the assay on HCT116 (colon), 1.9 µM.

The values are drawn from patent US11891396B1, “5-substituted pyrido[3″,4″:4′,5′]pyrrolo[3′,2′:4,5]imidazo[1,2-a]pyrazine compounds as CK2 inhibitors” (KING FAISAL UNIVERSITY, priority 2023, dated 2024).
